Data as given in PMC10482267, “Safety, tolerability, pharmacokinetics, and pharmacodynamics of single and multiple doses of aficamten in healthy Chinese participants: a randomized, double-blind, placebo-controlled, phase 1 study” (Frontiers in Pharmacology, 2023).
Values joined by “and” are separate entries in the source; they are usually repeats but may differ in a detail not shown here. Identical values can stand only once. “Also recorded” adds a separate entry of the source. Like-named read-outs stand apart in the source and are kept apart here.

Key:
[1] = Plasma pharmacokinetics of aficamten and metabolites after single and multiple oral doses, phase 1 study; assay type: in vivo, human; conditions: for AR_AUC (accumulation ratio based on AUC0-24) / AR_Cmax (accumulation ratio based on Cmax): day 14 vs day 1; for Tmax / AUC(0-inf) / AUC(0-t) / Cmax / half-life: human
Description: This was a double-blind, randomized, placebo-controlled, phase 1 study including SAD and MD dose cohorts (Figure 1). […] For the second single-dose cohort, 20 mg was chosen as the escalated dose according to the dosing plan scheduled in the phase 3 study (CY 6031: NCT05186818). Furthermore, a multiple oral dose of 5 mg once daily (QD) was selected to explore the steady-state PK exposure in Chinese participants and to compare the findings with the MAD 5 mg QD results in the study CY 6011.
A total of 28 participants were enrolled in the study, with eight participants per SAD cohort (10 mg and 20 mg) and 12 participants in the MD cohort (5 mg). The sample size chosen for this study was based on other precedent PK studies of similar nature and was not based on power calculations. In each SAD cohort, eight eligible participants were randomized in 3:1 ratio to receive a single oral dose of aficamten or the matching placebo after overnight fasting. The dose escalation criteria (see Supplementary File S1) had to be met to proceed from the SAD 10 mg cohort to the SAD 20 mg cohort. In addition, the SAD 20 mg cohort started at least 5 days after the last subject’s administration in the SAD 10 mg cohort. Upon the completion of the SAD 20 mg cohort, the study proceeded to the MD 5 mg cohort when the dose escalation criteria were met. The MD cohort started at least 5 days later after the last subject’s administration in the SAD 20 mg cohort. In the MD cohort, 12 eligible participants were enrolled and randomized in 3:1 ratio to receive multiple oral doses of 5 mg of aficamten or the matching placebo under fasting conditions for 14 days. The investigator would determine if stopping rules (see Supplementary File S2) were met in this cohort.
(§1) Blood samples (4 mL) for plasma PK analysis of aficamten and its metabolites (mono-hydroxylated derivative CK-3834282 and its diastereomer CK-3834283) were collected into K2EDTA tubes in the SAD cohorts at the following time points: at pre-dose and at 0.25, 0.5, 1, 1.5, 2, 2.5, 3, 4, 6, 8, 12, 16, 24, 36, 48, 72, 96, and 216 h post-dose. In the MD cohort, blood samples were collected at pre-dose and at 0.25, 0.5, 1, 1.5, 2, 2.5, 3, 4, 6, 8, 12, and 16 h post-dose on day 1; at pre-dose and at 1.5 h post-dose on day 2, days 4–6, and day 9; at pre-dose on day 3, days 7–8, and days 10–13; at pre-dose and at 0.25, 0.5, 1, 1.5, 2, 2.5, 3, 4, 6, 8, 12, 16, 24, 36, 48, 72, 168, and 216 h post-dose on day 14. After collection, blood samples were centrifuged at 1700 g for 10 min at 4°C ± 2°C; plasma was aliquoted and stored at −80°C ± 20°C until analyzed. Meanwhile, samples for urine PK analysis of aficamten were collected in the MD cohort as follows: pre-dose, 0–4 h, 4–8 h, 8–12 h, and 12–24 h on days 1 and 14, respectively.
(§2) The samples were determined using a validated ultra-performance liquid chromatography-tandem mass spectrometry (UPLC-MS/MS) method. The detection was performed on a tandem mass spectrometer in the electrospray ionization (ESI)-positive mode. The multiple reactions monitoring (MRM) mode was applied to monitor the following ion transitions: m/z 338.2→213.2 for aficamten and m/z 354.3→ 229.3 for metabolite CK-3834282 and its diastereomer CK-3834283. Note that the diastereomers were separated from chromatography during the analysis. The calibration curves of the plasma and urine samples were linear, ranging from 1 to 500 ng/mL, and the intra- and inter-run accuracies (RE%) and precisions (RSD%) were within ±15%. In addition, the selectivity, matrix effect, extraction recovery, carryover, and stability at different conditions were also fully evaluated.
The plasma PK parameters were evaluated using the plasma concentrations by the non-compartmental model approach using WinNonlin (version 8.3, Certara LP, Princeton, NJ, USA) and were summarized descriptively by the cohort and dose. […]

[2] = Urine pharmacokinetics of aficamten, MD cohort; assay type: in vivo, human; conditions: for Ae(0–24) (amount excreted unchanged in urine) / CL renal: MD 5 mg, mean ± SD; for CL renal: human, urine, oral, 5 mg, read-out: CLr (renal clearance) (converted)
Description: as §1, §2
The urine PK parameters (MD cohort) were calculated as follows: CLR (renal clearance), Ae (amount of drug excreted unchanged in the urine), and Fe (percentage of drug excreted unchanged in the urine).

[3] = tested on: healthy Western participants; conditions: 2022, cited from earlier work
[4] = MD 5 mg once daily, mean ± SD, listed as Aficamten

## CCc1nc(-c2ccc3c(c2)CC[C@H]3NC(=O)c2cnn(C)c2)no1 [aficamten]
[1]; MD 5 mg once daily, mean ± SD
  AR_AUC (accumulation ratio based on AUC0-24): 4.2 and 4.16
  AR_Cmax (accumulation ratio based on Cmax): 1.8
[1]; [4]
  AR_AUC (accumulation ratio based on AUC0-24): 4.2 ± 0.4
  AR_Cmax (accumulation ratio based on Cmax): 1.8 ± 0.6
[1]; MD 5 mg, day 14, plasma, mean ± SD
  t1/2: 76.8 ± 11.8 h
[1]; MD 5 mg, day 14, plasma, median (minimum, maximum)
  tmax (tmax,ss): 0.5 (0.25, 2.0) h
[1]; MD 5 mg, day 14, mean ± SD
  CL/F: 3.8 ± 0.6 L/h
  V/F: 412.7 ± 66.1 L
[1]; SAD 10 mg, mean ± SD
  CL/F: 3.0 ± 0.19 L/h
  V/F: 320.3 ± 51.3 L
[1]; SAD 20 mg, plasma, mean ± SD
  t1/2: 77.3 ± 13.6 h
[1]; SAD 20 mg, mean ± SD
  CL/F: 3.4 ± 0.2 L/h
  V/F: 371.9 ± 55.4 L
[1]; dose range 5–20 mg
  dose proportionality of plasma exposure (AUC0-24 and Cmax), in words: dose-proportional
[1]; oral, MD 5 mg, day 1, plasma, median (minimum, maximum), read-out: tmax
  Tmax: 0.5 h
[1]; oral, SAD 10 mg, plasma, mean ± SD
  AUC(0-inf): 3340 ± 223 ng·h/mL
[1]; oral, SAD 10 mg, plasma, median (minimum, maximum), read-out: tmax
  Tmax: 0.75 h
[1]; oral, SAD 20 mg, plasma, mean ± SD
  AUC(0-inf): 5990 ± 415 ng·h/mL
[1]; oral, SAD 20 mg, plasma, median (minimum, maximum), read-out: tmax
  Tmax: 0.5 h
[1]; plasma, oral, 5 mg, MD 5 mg once daily, day 1, plasma, mean ± SD, N = 9, read-out: AUC0-24
  AUC(0-t): 325 ± 32.6 ng·h/mL
[1]; plasma, oral, 5 mg, MD 5 mg once daily, day 14, plasma, mean ± SD, N = 9, read-out: AUC0-24
  AUC(0-t): 1360 ± 215 ng·h/mL
[1]; plasma, oral, 5 mg, MD 5 mg, day 1, plasma, mean ± SD, read-out: AUC0-t
  AUC(0-t): 324 ± 32.5 ng·h/mL
[1]; plasma, oral, 5 mg, MD 5 mg, day 1, plasma, mean ± SD, read-out: Cmax
  Cmax: 72.6 ± 19.5 ng/mL
[1]; plasma, oral, 5 mg, MD 5 mg, day 1, plasma, mean ± SD, read-out: t1/2 (converted)
  half-life: 38.6 ± 16.1 h
[1]; plasma, oral, 5 mg, MD 5 mg, day 14, plasma, mean ± SD, read-out: Cmax (Cmax,ss)
  Cmax: 122 ± 35.2 ng/mL
[1]; plasma, oral, 5 mg, MD 5 mg, day 14, plasma, mean ± SD, read-out: t1/2 (converted)
  half-life: ~77 h
[1]; plasma, oral, 10 mg, SAD 10 mg, plasma, mean ± SD, read-out: AUC0-t
  AUC(0-t): 2780 ± 249 ng·h/mL
[1]; plasma, oral, 10 mg, SAD 10 mg, plasma, mean ± SD, read-out: Cmax
  Cmax: 115 ± 29.9 ng/mL
[1]; plasma, oral, 10 mg, SAD 10 mg, plasma, mean ± SD, read-out: t1/2 (converted)
  half-life: 73.8 ± 10.2 h
[1]; plasma, oral, 20 mg, SAD 20 mg, plasma, mean ± SD, read-out: AUC0-t
  AUC(0-t): 5290 ± 372 ng·h/mL
[1]; plasma, oral, 20 mg, SAD 20 mg, plasma, mean ± SD, read-out: Cmax
  Cmax: 227 ± 71.8 ng/mL
[1]; plasma, oral, all cohorts, read-out: time of peak concentration (tmax day 1, tmax,ss day 14)
  Tmax: 0.5 to 0.75 h
[1]; plasma, po, 10 mg, SAD 10 mg single oral dose, fasted, plasma, mean ± SD, N = 6, read-out: AUC0-24
  AUC(0-t): 670 ± 85 ng·h/mL
[1]; plasma, po, 20 mg, SAD 20 mg single oral dose, fasted, plasma, mean ± SD, N = 6, read-out: AUC0-24
  AUC(0-t): 1300 ± 151 ng·h/mL
[1]; plasma, po, across single oral dose 10 mg and 20 mg and 14 days QD 5 mg, read-out: mean half-life
  half-life: 74 to 77 h
[1]; plasma, po, single oral dose of 10 mg and 20 mg of aficamten, across both doses, read-out: t1/2 (arithmetic mean)
  half-life: 74 to 77 h
[2]; day 1, urine
  Ae(0–24) (amount excreted unchanged in urine): 3.2 ± 2.6 µg
  CL renal: 0.158 mL/min
[2]; day 14, urine
  Ae(0–24) (amount excreted unchanged in urine): 18.5 ± 8.0 µg
  CL renal: 0.228 mL/min
[2]; multiple doses of 5 mg
  drug excreted with urine in unchanged form: about 0.37%
[3]; 5 mg QD 14 days, healthy Western participants, CY 6011, ref Robertson et al., 2019, Malik et al.
  accumulation ratio (AR_AUC0-24): 4.71
[3]; 10 mg single dose, healthy Western participants, ref Malik et al.
  Cmax, mean (SD): 70.5 (69.0) ng/mL
[3]; CYP2D6-PM cohort vs non-poor metabolizers, CY 6011, ref Malik et al.
  effect of CYP2D6 poor metabolizer status on aficamten exposure: comparable; also recorded: did not affect the pharmacokinetics
[3]; SAD 10 mg, healthy Western participants, ref Malik et al.
  median tmax: 1.8 h
[3]; daily dosing, CY 6011, ref Robertson et al., 2019, Malik et al.
  time after which steady-state appeared evident: 14 days
[3]; healthy Western populations, FIH phase 1, ref Robertson et al., 2019, Malik et al.
  safety and tolerability: safe and well-tolerated
